Target: T1, human KV 1.5 (IKur) (Homo sapiens, UniProt P22460)
T1 construct: expressed in transfected cells
Assay: Block of IKur current in patch clamped L-929 cells expressing human Kv1.5
Type: cell-based
Conditions: L929, patch clamped mammalian L-929 cells stably expressing human Kv1.5, read-out: Percentage inhibition of Kv1.5 in L-929 cells at 0.3 μM
From the text: Assays to determine the degree of activity of a compound as an IKur inhibitor are well known in the art and are described in references such as J. Gen. Physiol., 101(4):513-543 (April 1993), and Br. J. Pharmacol., 115(2):267-274 (May 1995).
Synders, D. J. et al., “A rapidly activating and slowly inactivating potassium channel cloned from human heart: functional analysis after stable mammalian cell culture expression”, J. Gen. Physiol., 101:513-543 (1993). • 2. Zhou, Z. et al., “Block of HERG potassium channels by the antihistamine astemizole and its metabolites desmethylastemizole and norastemizole”, J. Cardiovasc. Electrophysiol., 10(6):836-843 (1999).

T1 sequence (P22460 whole entry): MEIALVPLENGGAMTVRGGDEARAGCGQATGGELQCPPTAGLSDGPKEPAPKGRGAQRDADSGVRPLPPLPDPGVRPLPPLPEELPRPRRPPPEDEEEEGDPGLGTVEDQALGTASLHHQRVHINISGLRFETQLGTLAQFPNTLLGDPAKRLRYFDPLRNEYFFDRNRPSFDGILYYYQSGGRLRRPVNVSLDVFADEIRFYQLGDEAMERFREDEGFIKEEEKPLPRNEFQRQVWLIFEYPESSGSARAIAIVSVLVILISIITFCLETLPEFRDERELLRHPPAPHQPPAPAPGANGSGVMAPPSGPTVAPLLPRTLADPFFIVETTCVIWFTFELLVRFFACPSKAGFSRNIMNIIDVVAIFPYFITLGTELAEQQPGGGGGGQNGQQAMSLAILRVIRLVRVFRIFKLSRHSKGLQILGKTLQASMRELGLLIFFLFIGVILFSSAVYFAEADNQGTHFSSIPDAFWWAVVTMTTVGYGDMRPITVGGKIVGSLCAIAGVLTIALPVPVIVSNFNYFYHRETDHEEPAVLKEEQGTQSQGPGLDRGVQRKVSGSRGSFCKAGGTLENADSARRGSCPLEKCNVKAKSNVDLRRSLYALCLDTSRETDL

| SMILES | inhibition at 0.3 µM |
| --- | --- |
| CC(=O)NS(=O)(=O)c1cncc(-c2cc(NCc3ccccc3)c3c(-c4ccccc4)ccn3n2)c1 [Example 2, N-((5-(4-(Benzylamino)-5-phenylpyrrolo[1,2-b]pyridazin-2-yl)pyridin-3-yl)sulfonyl)acetamide] | 37% |
| NS(=O)(=O)c1cncc(-c2cc(NCc3ccccc3)c3c(-c4cccc(F)c4)ccn3n2)c1 [Example 6, 5-(4-(Benzylamino)-5-(3-fluorophenyl)pyrrolo[1,2-b]pyridazin-2-yl)-pyridine-3-sulfonamide] | 95% |
| NS(=O)(=O)c1cncc(-c2cc(NCc3ccccc3)c3c(-c4ccccc4)ccn3n2)c1 [Example 1, 5-(4-(Benzylamino)-5-phenylpyrrolo[1,2-b]pyridazin-2-yl)pyridine-3-sulfonamide] | 99% |
| CC(=O)Nc1cncc(-c2cc(NCc3ccccc3)c3c(-c4ccccc4)ccn3n2)c1 [Example 3, N-(5-(4-(Benzylamino)-5-phenylpyrrolo[1,2-b]pyridazin-2-yl)pyridin-3-yl)acetamide] | 98% |
| CCOC(=O)c1cncc(-c2cc(NCc3ccccc3)c3c(-c4cncc(C(=O)OCC)c4)ccn3n2)c1 [Example 5, Diethyl 5,5′-(4-(benzylamino)pyrrolo[1,2-b]pyridazine-2,5-diyl)dinicotinate] | 34% |
| CS(=O)(=O)Nc1cncc(-c2cc(NCc3ccccc3)c3c(-c4ccccc4)ccn3n2)c1 [Example 4, N-(5-(4-(Benzylamino)-5-phenylpyrrolo[1,2-b]pyridazin-2-yl)pyridin-3-yl)methanesulfonamide] | 98% |

— patent US9458164B2, “Pyrrolopyridazines as potassium ion channel inhibitors” (BRISTOL-MYERS SQUIBB COMPANY, priority 2013, dated 2016)
